Reference: patent US20040209850A1, “Methods of treating pain and compositions for use therefor” (TheraQuest Biosciences, LLC, priority 2003, published 2004)

Tests used:
mouse = assay: Chemically-induced (acetic acid) abdominal constrictions in the mouse; type: in vivo; conditions: mean ± S.E.M.
Description: Albuterol or vehicle 1 was dosed intraperitoneally (−25 min), followed by a subcutaneous dose of indomethacin or vehicle 2 (−20 min), prior to acetic acid (0.7% v/v) administration (0 min).

rat = assay: Tail-flick test: antinociception of albuterol, morphine and morphine plus albuterol (% MPE, A50); type: in vivo
Source text: The tail flick test was first described by D'Amour and Smith (1941), and remains essentially unchanged in application. (See generally D'Amour, F. E. and Smith, D. L., “A method for determining loss of pain sensation”, J. Pharmacol. Exp. Therap., 72:74-79(1941); Dewey, D. L. and Harris, L. S., The Tail-flick test. In: S. Ehrenpreis and A. Neidle (Eds.), Methods in Narcotic Research, Marcel Dekker, Inc., New York, 1975, pp. 101-109; and Dubner, R. and Ren, K., “Assessing transient and persistent pain in animals.” In: P. D. Wall and R. Melzack (Eds.), Textbook of Pain, Churchill Livingstone, London, 1999, pp. 359-369). Quite simply, the tail of a rat or mouse is exposed to radiant heat, and the latency to withdraw is determined. The basal heat intensity is set so that naive rats withdraw their tails within 2 to 3 sec. A cut-off latency of 10 sec (i.e., 3 to 4 times basal control value) is commonly employed to prevent tissue damage. An alternative to using radiant heat is to dip the tail into a water bath maintained at a fixed temperature, usually in the moderately noxious range of about 52° C. or 55° C. One advantage of a water bath is that the temperature is kept constant.
The tail-flick test is considered to be very robust in that weak analgesic agents are not detected by this test. […] It is even possible to perform the tail-flick test in lightly anesthetized animals.
Data obtained from the rat tail-flick test conform to a graded dose-response curve. The raw tail withdrawal latencies are converted to a % MPE (% maximal possible effect) by the formula:
% MPE=100×(test latency−basal latency)/(cut-off−basal latency).
This formula constrains the data to fit between 0% MPE and 100% MPE. […] These calculations then allow for the determination of relative potencies of different drugs and allow for the isobolographic determination of possible synergistic effects. Instances where the test latency is less than the basal latency produces a negative % MPE, which is meaningless unless one is measuring hyperalgesia.
Absent any interaction, the dose-effect curves for morphine alone and in the presence of albuterol should be identical.
This manipulation allowed the construction of dose-effect curves and more importantly, the calculation of the A50 (dose required to produce a 50% effect) and the confidence intervals. The data were converted to % MPE based on the equation:
% MPE=(response−baseline)/(8.2−baseline)×100.
Baseline refers to the pre-treatment tail-flick latencies, and 8.2 represents the maximal effect. […] The A50 values and confidence intervals for each of the dose-effect curves were determined from linear regression analysis of the logdose-effect curves. Significant shifts in the dose-effect curves were indicated by Student's t-statistic applied to the A50 values obtained for morphine and morphine plus albuterol, and was performed with our custom-designed data analysis software.
The SEM values are approximate and are derived as a ratio of the SEM of the raw data to the respective mean and adjusted as a function of % MPE.

With `COc1ccc2c(c1)c(CC(=O)O)c(C)n2C(=O)c1ccc(Cl)cc1` [Indomethacin] the “Number of Abdominal Constrictions Exhibited in Time Period (min) Post Acetic Acid” value (“Number” below) (mouse; indomethacin 0.1 mg/kg s.c., 5-10 min) was 14.3 ± 2.6, the “Number” value (mouse; indomethacin 0.1 mg/kg s.c., 5-15 min) was 23.6 ± 3.7 and the “Number” value (mouse; indomethacin 1 mg/kg s.c., 5-10 min) was 7.5 ± 2.0. The “Number” value (mouse; indomethacin 1 mg/kg s.c., 5-15 min) was 14.5 ± 2.9, the “Number” value (mouse; indomethacin 3 mg/kg s.c., 5-10 min) was 6.8 ± 1.7 and the “Number” value (mouse; indomethacin 3 mg/kg s.c., 5-15 min) was 12.2 ± 3.1. The “Number” value (mouse; indomethacin 5 mg/kg s.c., 5-10 min) was 8.3 ± 2.0, the “Number” value (mouse; indomethacin 5 mg/kg s.c., 5-15 min) was 14.1 ± 3.4 and the “Number” value (mouse; indomethacin 10 mg/kg s.c., 5-10 min) was 6.8 ± 1.7. The “Number” value (mouse; indomethacin 10 mg/kg s.c., 5-15 min) was 11.9 ± 2.9, the “Number” value (mouse; indomethacin 30 mg/kg s.c., 5-10 min) was 10.5 ± 2.3 and the “Number” value (mouse; indomethacin 30 mg/kg s.c., 5-15 min) was 17.6 ± 3.2. For the same molecule, the “Number” value (mouse; indomethacin 50 mg/kg s.c., 5-10 min) was 1.4 ± 0.6 and the “Number” value (mouse; indomethacin 50 mg/kg s.c., 5-15 min) was 4.5 ± 1.3.

In the case of `CN1CC[C@]23c4c5ccc(O)c4O[C@H]2[C@@H](O)C=C[C@H]3[C@H]1C5` [Morphine], the “A50 (95% confidence interval), dose required to produce a 50% effect” value (“A50 (95% confidence interval)” below) (rat; 30 minutes after injection) is reported as 4.53 mg/kg, the “A50 (95% confidence interval)” value (rat; 30 minutes after injection, listed as Morphine alone) is reported as 4.53 (3.92 to 5.24) mg/kg and the “A50 (95% confidence interval)” value (rat; 60 minutes after injection) is reported as 9.94 mg/kg. For the same molecule, the “A50 (95% confidence interval)” value (rat; 60 minutes after injection, listed as Morphine alone) was 9.94 (9.84 to 10.04) mg/kg, the “dose-dependency of antinociception (FIG. 1)” value (rat; dose-effect curves as % MPE) was “demonstrated dose-dependent antinociception” and the “antinociceptive effect (in words)” value (rat; morphine 0.3 mg/kg to 2.5 mg/kg) was “minimal effects”. The “Antinociceptive effect (as % MPE)” value (rat; morphine alone 0.3125 mg/kg, 30 minutes) was 25.86 ± 3.31 % MPE, the “Antinociceptive effect (as % MPE)” value (rat; morphine alone 0.3125 mg/kg, 60 minutes) was 24.14 ± 1.27 % MPE and the “Antinociceptive effect (as % MPE)” value (rat; morphine alone 0.625 mg/kg, 30 minutes) was 22.41 ± 1.82 % MPE. For the same molecule, the “Antinociceptive effect (as % MPE)” value (rat; morphine alone 0.625 mg/kg, 60 minutes) was 20.69 ± 1.72 % MPE, the “Antinociceptive effect (as % MPE)” value (rat; morphine alone 1.25 mg/kg, 30 minutes) was 33.33 ± 2.27 % MPE and the “Antinociceptive effect (as % MPE)” value (rat; morphine alone 1.25 mg/kg, 60 minutes) was 19.3 ± 2.14 % MPE. The “Antinociceptive effect (as % MPE)” value (rat; morphine alone 2.5 mg/kg, 30 minutes) was 28.57 ± 2.04 % MPE, the “Antinociceptive effect (as % MPE)” value (rat; morphine alone 2.5 mg/kg, 60 minutes) was 21.43 ± 1.69 % MPE and the “Antinociceptive effect (as % MPE)” value (rat; morphine alone 5 mg/kg, 30 minutes) was 44.07 ± 3.6 % MPE. The “Antinociceptive effect (as % MPE)” value (rat; morphine alone 5 mg/kg, 60 minutes) was 13.56 ± 2.19 % MPE, the “Antinociceptive effect (as % MPE)” value (rat; morphine alone 10 mg/kg, 30 minutes) was 91.07 ± 14.19 % MPE and the “Antinociceptive effect (as % MPE)” value (rat; morphine alone 10 mg/kg, 60 minutes) was 50 ± 9.26 % MPE.
